Experimental findings from ChEMBL document CHEMBL1201862, “PubChem BioAssay data set” (2004) are described below.

Molecules are shown by their SMILES.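 Growth conditions: 96-well plates. Treatment: test compound, 48 hours, 5 concentrations. Analysis: linear interpolation between bracketing concentrations; unreached endpoints set to highest concentration. Here, GI50 denotes the concentration required for 50% inhibition of growth.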 The source made the active and inactive calls. Rule as the data show it: active = GI50 up to about 1.1 µM and inactive = higher.

Test systems include HCT-116; UO-31; SF-268; SK-MEL-28; KM-20L2; SF-295; A498; HOP-62; OVCAR-8; KM12; HL-60; OVCAR-4; M14; OVCAR-5; OVCAR-3; SNB-75; HOP-92; MDA-N; Hs-578T; T47D.
What all share (assay): DTP human tumour cell line panel, 48 h

The GI50 is the concentration at which growth is held to half of that of the control. On to `CN(C)CCC(/C=C/c1ccccc1)=N\Nc1ccc(Cl)c(Cl)c1`, for which the GI50 is 3.56 µM (inactive) with HCT-116; 1.64 µM (inactive) in the assay with UO-31; 2.56 µM (inactive) with SF-268; 9.33 µM (inactive) in the assay on SK-MEL-28; 2.02 µM (inactive) in the assay on KM-20L2; 3.78 µM (inactive) in the assay with SF-295. Besides, the GI50 in the assay with A498 was 4.63 µM (inactive); in the assay on HOP-62 it was 3.15 µM (inactive); in the assay on OVCAR-8, 2.7 µM (inactive); in the assay with KM12 it was 2.05 µM (inactive); with HL-60, 2.7 µM (inactive); with OVCAR-4, 3.56 µM (inactive). In addition, the GI50 was 2.72 µM (inactive) in the assay on M14; 3.33 µM (inactive) with OVCAR-5; 4.27 µM (inactive) with OVCAR-3; 2.27 µM (inactive) in the assay with SNB-75; 1.41 µM (inactive) in the assay on HOP-92.

Consider `O=C(/C=C/c1ccc(Cl)cc1)c1ccncc1`, for which the GI50 with HCT-116 was 62.2 µM (inactive); with UO-31, 40.3 µM (inactive); with SF-268, 85.9 µM (inactive); with SK-MEL-28, 52.6 µM (inactive); in the assay with KM-20L2, 35.9 µM (inactive); in the assay with SF-295 it was 47.1 µM (inactive). The GI50 was 27 µM (inactive) in the assay with A498; 98.9 µM (inactive) with HOP-62; > 100 µM (inactive) in the assay with OVCAR-8; 26 µM (inactive) in the assay on KM12; 32 µM (inactive) with HL-60; 22.5 µM (inactive) with OVCAR-4. Further, the GI50 was 36.1 µM (inactive) with M14; > 100 µM (inactive) with OVCAR-5; 40.8 µM (inactive) in the assay with OVCAR-3; 22.1 µM (inactive) in the assay on SNB-75; > 100 µM (inactive) in the assay on HOP-92.

For the compound `Brc1ccccc1/C=N\C12CC3CC(CC(C3)C1)C2`, the GI50 in the assay on HCT-116 is 1.85 µM (inactive); with UO-31, > 100 µM (inactive); in the assay on SF-268 it was 99.1 µM (inactive); with SK-MEL-28 it was > 100 µM (inactive); in the assay with KM-20L2 it was > 100 µM (inactive); with SF-295 it was 63.8 µM (inactive). For the same compound, the GI50 was > 100 µM (inactive) in the assay with A498; 3.38 µM (inactive) with MDA-N; > 81.8 µM (inactive) in the assay with HOP-62; > 100 µM (inactive) with OVCAR-8; > 100 µM (inactive) in the assay on KM12; 0.879 µM (active) in the assay on HL-60. For the same compound, the GI50 in the assay on OVCAR-4 is > 100 µM (inactive); in the assay with M14, 28.1 µM (inactive); with OVCAR-5 it was > 100 µM (inactive); in the assay with Hs-578T, > 64.6 µM (inactive); in the assay with OVCAR-3, 23.8 µM (inactive); with SNB-75 it was 38.2 µM (inactive). Further, the GI50 in the assay with HOP-92 is 84.7 µM (inactive); in the assay on T47D, > 100 µM (inactive).

For `Nc1nc2c(c(=O)[n-]1)[n+](CCO)cn2C1OC(CO)C(O)C1O` (centres undefined), the GI50 in the assay with HCT-116, in the assay with UO-31, in the assay with SF-268, with SK-MEL-28, with KM-20L2 and in the assay with SF-295 was > 100 µM (inactive) each time. Further, the GI50 with A498, with HOP-62, with OVCAR-8, in the assay with KM12, in the assay on HL-60 and with OVCAR-4 was > 100 µM (inactive) each time. The GI50 in the assay on M14, with OVCAR-5, with OVCAR-3, in the assay on SNB-75 and with HOP-92 was > 100 µM (inactive) in each case.

As for `CC(C)c1ccccc1NC(=O)CCc1n[nH]c(=S)o1`, the GI50 is > 63.5 µM (inactive) in the assay on HCT-116; > 100 µM (inactive) with UO-31; > 100 µM (inactive) with SF-268; > 100 µM (inactive) with SK-MEL-28; > 100 µM (inactive) in the assay with KM-20L2; > 100 µM (inactive) with SF-295. Also, the GI50 is > 100 µM (inactive) with A498; > 100 µM (inactive) in the assay on HOP-62; > 100 µM (inactive) in the assay on OVCAR-8; > 100 µM (inactive) in the assay with KM12; > 59.8 µM (inactive) with HL-60; > 100 µM (inactive) in the assay on OVCAR-4. In addition, the GI50 in the assay on M14 is > 100 µM (inactive); with OVCAR-5, > 100 µM (inactive); in the assay on OVCAR-3, > 100 µM (inactive); in the assay with SNB-75, > 66.4 µM (inactive); with HOP-92 it was > 100 µM (inactive).

As to `O=[N+]([O-])c1cccc(/C=N/C23CC4CC(CC(C4)C2)C3)c1`, the GI50 with HCT-116, with UO-31, with SF-268, in the assay with SK-MEL-28, with KM-20L2 and in the assay on SF-295 was > 100 µM (inactive) in each case. In addition, the GI50 is > 100 µM (inactive) in the assay with A498; > 100 µM (inactive) with HOP-62; > 100 µM (inactive) with OVCAR-8; > 100 µM (inactive) in the assay with KM12; 23.9 µM (inactive) in the assay on HL-60; > 100 µM (inactive) with OVCAR-4. Also, the GI50 with M14, with OVCAR-5, in the assay with OVCAR-3, with SNB-75 and with HOP-92 was > 100 µM (inactive) in each case.

Take `O=S(=O)(N/N=C/c1ccc(Cl)cc1Cl)c1ccccc1`: the GI50 in the assay with HCT-116 is 49 µM (inactive); in the assay on UO-31 it was > 100 µM (inactive); in the assay on SF-268 it was 63.1 µM (inactive); with SK-MEL-28 it was 67.8 µM (inactive); with KM-20L2, 85.1 µM (inactive); in the assay on SF-295, > 100 µM (inactive). In addition, the GI50 is > 100 µM (inactive) in the assay with A498; > 100 µM (inactive) in the assay with HOP-62; 71.4 µM (inactive) in the assay with OVCAR-8; 51.2 µM (inactive) in the assay on KM12; 19.5 µM (inactive) in the assay on HL-60; > 100 µM (inactive) with OVCAR-4. Moreover, the GI50 in the assay with M14 was 81.1 µM (inactive); in the assay on OVCAR-5, > 100 µM (inactive); in the assay with OVCAR-3, 91.4 µM (inactive); in the assay with SNB-75 it was 83 µM (inactive); in the assay with HOP-92, 34.8 µM (inactive).

For the compound `Cc1ccc(S(=O)(=O)OC2CS[S+]([O-])CC2OS(=O)(=O)c2ccc(C)cc2)cc1` (centres undefined), the GI50 in the assay with HCT-116 was 13.9 µM (inactive); in the assay on UO-31, 18.9 µM (inactive); in the assay with SF-268, 17 µM (inactive); in the assay with SK-MEL-28, 15.6 µM (inactive); with KM-20L2, 17.7 µM (inactive); in the assay with SF-295 it was 15.7 µM (inactive). Besides, the GI50 is 16.1 µM (inactive) in the assay on A498; 20.8 µM (inactive) in the assay on HOP-62; 10.6 µM (inactive) with OVCAR-8; 17.3 µM (inactive) in the assay with KM12; 6.01 µM (inactive) in the assay on HL-60; 15.6 µM (inactive) in the assay on OVCAR-4. In addition, the GI50 with M14 is 14.3 µM (inactive); in the assay on OVCAR-5 it was 18.2 µM (inactive); in the assay on OVCAR-3 it was 17.4 µM (inactive); in the assay on SNB-75, 20.6 µM (inactive); in the assay with HOP-92 it was 13 µM (inactive).

As for `CS(=O)(=O)CS(=O)(=O)OCCCl`, the GI50 in the assay on HCT-116 is 166 µM (inactive); with UO-31, 348 µM (inactive); with SF-268, 47.9 µM (inactive); in the assay on SK-MEL-28, 490 µM (inactive); with KM-20L2, 565 µM (inactive); in the assay with SF-295 it was 60.8 µM (inactive). In addition, the GI50 in the assay with A498 was 527 µM (inactive); in the assay on MDA-N, 107 µM (inactive); in the assay on HOP-62 it was 43.3 µM (inactive); in the assay with OVCAR-8, 191 µM (inactive); in the assay with KM12, 339 µM (inactive); with HL-60, 136 µM (inactive). Besides, the GI50 in the assay with OVCAR-4 was 403 µM (inactive); in the assay on M14, 191 µM (inactive); with OVCAR-5 it was 621 µM (inactive); in the assay on Hs-578T, 272 µM (inactive); with OVCAR-3, 264 µM (inactive); in the assay with SNB-75, 46.8 µM (inactive). Also, the GI50 with HOP-92 was 119 µM (inactive); with T47D, 218 µM (inactive).
